# Experimental data taken from patent US20230144385A1, “ETHANOLAMINE FORMULATION FOR TREATING EPITHELIAL OVARIAN CARCINOMA” (METANOI THERAPEUTICS, INC., priority 2020, published 2023).
# pKd, pKi: −log10 of the molar value.
# Tests used:
# [1] = target: FR2 (Homo sapiens, UniProt P14207); conditions: read-out: affinity; cited from earlier work
# [2] = target: FR1 (Homo sapiens, UniProt P15328); conditions: read-out: affinity; cited from earlier work
# [3] = tested on: BT-549 breast cancer cells; conditions: BT-549 cells with amplified centrosomes; cited from earlier work
# [4] = target: KIFC1/microtubule (MT) binary complex (Homo sapiens, UniProt Q9BW19); conditions: ATP-competitive, MT-noncompetitive; cited from earlier work
# Sequence of KIFC1/microtubule (MT) binary complex (Q9BW19 whole entry, species assumed): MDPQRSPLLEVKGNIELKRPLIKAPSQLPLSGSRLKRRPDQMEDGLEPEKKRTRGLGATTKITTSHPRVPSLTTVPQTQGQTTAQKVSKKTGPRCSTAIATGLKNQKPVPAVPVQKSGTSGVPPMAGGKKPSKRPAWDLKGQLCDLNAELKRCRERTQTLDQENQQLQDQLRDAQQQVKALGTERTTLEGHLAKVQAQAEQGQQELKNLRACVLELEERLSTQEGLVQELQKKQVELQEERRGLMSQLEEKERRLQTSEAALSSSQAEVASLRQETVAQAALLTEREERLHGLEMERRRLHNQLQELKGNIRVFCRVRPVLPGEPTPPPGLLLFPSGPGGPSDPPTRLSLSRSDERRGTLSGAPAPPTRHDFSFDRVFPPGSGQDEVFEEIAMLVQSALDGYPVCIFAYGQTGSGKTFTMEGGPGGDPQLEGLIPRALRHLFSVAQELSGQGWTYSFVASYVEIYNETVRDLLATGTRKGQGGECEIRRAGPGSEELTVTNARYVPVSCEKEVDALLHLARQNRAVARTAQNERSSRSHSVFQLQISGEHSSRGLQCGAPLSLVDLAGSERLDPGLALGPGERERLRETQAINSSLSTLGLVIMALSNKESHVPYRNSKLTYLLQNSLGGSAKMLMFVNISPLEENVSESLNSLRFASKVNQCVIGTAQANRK
# Sequence of KIFC1/microtubule (MT) binary complex (P68363 whole entry partner, species assumed): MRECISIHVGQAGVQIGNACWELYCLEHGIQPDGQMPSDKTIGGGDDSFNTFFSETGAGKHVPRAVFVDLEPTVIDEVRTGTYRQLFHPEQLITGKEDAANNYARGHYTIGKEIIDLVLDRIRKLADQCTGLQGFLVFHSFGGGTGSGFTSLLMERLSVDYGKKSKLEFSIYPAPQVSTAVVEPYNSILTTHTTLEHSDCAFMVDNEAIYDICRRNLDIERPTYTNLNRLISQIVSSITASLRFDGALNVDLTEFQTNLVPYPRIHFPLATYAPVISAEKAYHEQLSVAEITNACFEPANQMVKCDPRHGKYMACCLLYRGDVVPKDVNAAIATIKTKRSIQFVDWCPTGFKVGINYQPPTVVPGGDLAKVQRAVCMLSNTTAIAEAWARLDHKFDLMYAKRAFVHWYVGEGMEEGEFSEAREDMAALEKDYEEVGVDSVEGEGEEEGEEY
# Sequence of KIFC1/microtubule (MT) binary complex (Q9BVA1 whole entry partner, species assumed): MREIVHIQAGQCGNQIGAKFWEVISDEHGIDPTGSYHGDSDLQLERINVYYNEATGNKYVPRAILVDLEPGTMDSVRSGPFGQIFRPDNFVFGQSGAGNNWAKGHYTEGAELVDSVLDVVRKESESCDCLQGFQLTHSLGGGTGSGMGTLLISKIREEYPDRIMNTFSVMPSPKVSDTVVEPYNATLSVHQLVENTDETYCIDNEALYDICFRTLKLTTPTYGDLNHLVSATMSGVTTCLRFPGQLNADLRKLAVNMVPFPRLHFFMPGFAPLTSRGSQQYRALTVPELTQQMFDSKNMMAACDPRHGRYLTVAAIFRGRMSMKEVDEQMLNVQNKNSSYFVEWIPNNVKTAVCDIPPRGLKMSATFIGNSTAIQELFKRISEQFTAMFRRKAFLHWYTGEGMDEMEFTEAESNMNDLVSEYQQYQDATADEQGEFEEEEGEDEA
# [5] = tested on: prostate cancer xenograft tumors; experiment: TEM and LC/MS-MS lipidomics of xenograft tumors; type: in vivo, mice
# Text: FIG. 6. […] Ultra-thin sections were cut on Boeckeler MTx ultramicrotome, counterstained with lead citrate, and examined on a LEO 906e TEM. Mitochondria and accumulated lipid granules are highlighted by red arrows. […] Left panels, scale bar ¼2 […]; right panels, scale bar ¼5 mm. […] Levels of PE (i), PS (ii), PC (iii), and SM (iv) lipids in control and Etn-treated tumors. In the abbreviation of lipid, 1st and 2nd numbers denote the number of carbon atoms and unsaturated bonds present in the lipid, respectively. Lipid amounts were quantified by LC/MS-MS. Values and error bars shown represent mean and SE, respectively.
# Lipidomic analyses of tumors from control and Etn-treated groups quantified 402 lipids from various lipid classes such as phosphatidylethanolamine (PE), phosphatidylcholine (PC), phosphatidylserine (PS), lysophospholipids, ceramides, and sphingomyelin (SM). Levels of 21 PE lipids (FIG. 6Bi), and other lipids from the PS (FIG. 6Bii), PC (FIG. […]), and SM (FIG. 6Biv) classes were increased in Etn-treated tumors. Thus, PhosE and phospholipid accumulation downregulates HIF-1α, precipitates a bioenergetics/metabolic crisis, activates p53-mediated signaling and culminates in cell death.
# [6] = tested on: prostate cancer xenograft (PC-3-luc tumors); experiment: Prostate cancer xenograft model, oral treatment; type: in vivo, mice
# Text: FIG. 3. (Ai) Representative bioluminescent images of one animal per group indicating progression of tumor growth over 4 weeks in control and Etn-treated mice. (Aii) Tumor growth monitored (by vernier calipers) over a period of 4 weeks. (Aiii) Weight of tumors from control and Etn-treated mice.
# The in vivo efficacy of this formulation was first examined (FIG. 3A). There was an ˜67% reduction in tumor volume (FIG. 3Aii) and ˜55% reduction in tumor weight (FIG. 3Aiii) after 4 weeks of treatment.
# [7] = tested on: HIF1-α; experiment: HIF1-α immunoblot of treated cell lysates; type: cell-based; conditions: Etn-treated cells
# Procedure: (§1) FIG. 5. (A) Immunoblots of control and Etn-treated cell lysates for HIF1-α. […] Intracellular glucose (Ci) and glutamine (Cii) levels in control and Etn-treated tumors. (D) Effect of choline kinase inhibition on intracellular levels of glucose (Di) and glutamine (Dii) in Etn-treated cells.
# (§2) It was hypothesized that PhosE accumulation alters HIF1-a expression/function that impairs glucose/glutamine metabolism leading to metabolic stress, which activates p53-induced cell death. […] OCR was measured in control and Etn-treated cells, and evaluated the glucose and glutamine content in (a) cultured cells and (b) tumors from control and Etn-treated mice. […] Inhibition of CK abrogated the Etn-mediated decrease in cellular glucose and glutamine content (FIGS. 5Di, ii).
# [8] = tested on: prostate cancer xenografts; experiment: Immunoblots and IHC of xenograft tumors; type: in vivo, mice
# Text: (§3) FIG. 4. (A) Immunoblots of control and Etn-treated cell lysates for pRb, cdk4, cdk2, p21, c-PARP, Bim, Bcl-2 and β actin. […] (C) Immunoblots of control and Etn-treated tumors lysates for p53, p21, Bax, pBcl-2, c-PARP, Bim, Bid and β actin. (D) Micrographs showing IHC staining of Ki67 and c-PARP in control and Etn-treated prostate cancer xenografts.
# [9] = GI tract stability, Etn compared with PhosE; type: in vitro ADME; conditions: compared to PhosE
# Text: (§4) ADM E and pharmacological properties of orally-delivered PhosE and Etn [both phosphatidylethanolamine (PE) lipid precursors] were first compared. […] Our mechanistic studies identified CK overexpression—a hallmark of metabolic reprogramming in multiple cancer types—in prostate tumor cells compared to adjacent normal. […] It was hypothesize that an Etn-based formulation can be developed into a safe, selective, pharmacodynamically- and pharmacokinetically-favorable, IND entity that singly or synergistically with the ICI Nivolumab, provides a novel therapeutic option for chemo-resistant EOCs/OCCC.
# [10] = tested on: PC-3, DU145, C42B and RWPE-1 cells; experiment: MTT cell survival, prostate cancer lines versus normal prostate cells; type: cell-based; conditions: 0.5 and 1 mg/mL, 48 hours, pH 7.4
# Procedure: (§5) PhosE was ineffective in inhibiting proliferation and colony formation of these cell lines up to 100 mg/ml (data not shown).
# [11] = tested on: PC-3 cells; experiment: Annexin V flow cytometry, PC-3 cells; type: cell-based, human
# [12] = tested on: PC-3 cells; experiment: Immunoblots of cell cycle and apoptosis markers in PC-3 cell lysates; type: cell-based, human
# Text: as §3
# [13] = tested on: PC-3 cells; experiment: Intracellular Etn and PhosE levels in treated PC-3 cells; type: cell-based, human; conditions: PC-3 cells treated with Etn or PhosE
# Text: (§6) FIG. 2. […] (B) Effect of choline kinase inhibition on proliferation of PC-3 cells. (C) Intracellular PhosE level upon Etn treatment.
# [14] = tested on: CYP; experiment: CYP-related drug-drug interaction liability; type: in vitro ADME
# Text: as §4
# [15] = tested on: PC-3 cells; experiment: PC-3 survival on Etn treatment with or without choline kinase inhibitor; type: cell-based, human; conditions: with CK inhibition
# Text: as §6
# [16] = tested on: cultured cells; experiment: Glucose and glutamine content of cultured cells; type: cell-based; conditions: versus control
# Procedure: as §1, §2
# [17] = tested on: PC-3 cells; experiment: MTT cell survival/proliferation assay, PC-3 cells; type: cell-based, human; conditions: 48 hours, pH 7.4, compared with PhosE
# Procedure: as §5
# [18] = tested on: prostate cancer xenograft tumors; experiment: Glucose and glutamine content of tumors; type: in vivo, mice; conditions: versus control
# Procedure: as §1, §2
# [19] = tested on: PC-3 cells; experiment: Clonogenic survival assay, PC-3 cells; type: cell-based, human; conditions: 2 mg/mL, pH 7.4, PC-3 cells
# Procedure: as §5
# [20] = tested on: PC-3 cells; experiment: Oxygen consumption rate in PC-3 cells; type: cell-based, human
# Procedure: as §1, §2
# [21] = tested on: MDA-MB-468, OVCAR-3, HCT116 and CFPAC cells; experiment: MTT dose-response on cancer cell lines from diverse tissues; type: cell-based
# Procedure: as §5
# [22] = 40 mg/kg Etn, pH=5.0, oral, after 4 weeks
# Sequence of FR1 (P15328 25-234): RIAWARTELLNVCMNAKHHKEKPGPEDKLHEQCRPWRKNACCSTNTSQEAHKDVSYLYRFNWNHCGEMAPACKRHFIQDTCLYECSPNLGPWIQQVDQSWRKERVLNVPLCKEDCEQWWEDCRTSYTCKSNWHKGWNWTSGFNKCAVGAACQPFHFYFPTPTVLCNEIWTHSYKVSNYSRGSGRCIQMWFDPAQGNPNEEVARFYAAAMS
# Sequence of FR2 (P14207 17-230): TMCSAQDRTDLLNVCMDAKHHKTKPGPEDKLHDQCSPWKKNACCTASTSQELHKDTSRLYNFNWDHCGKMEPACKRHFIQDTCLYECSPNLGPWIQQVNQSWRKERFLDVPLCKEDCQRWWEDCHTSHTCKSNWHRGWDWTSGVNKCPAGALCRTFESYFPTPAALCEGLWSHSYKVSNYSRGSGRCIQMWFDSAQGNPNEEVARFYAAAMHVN
structure (smiles),measurement,setting,value
CN1c2c(nc(N)[nH]c2=O)NC[C@@H]1CNc1ccc(C(=O)N[C@@H](CCC(=O)O)C(=O)O)cc1 [6S 5-methyltetrahydrofolate],pKd,[1],9.00
same,pKd,[2],7.26
CCCc1cc(C(=O)N[C@H](Cc2ccc(-c3cccc(OC(F)(F)F)c3)nc2)C(=O)N[C@@H]2CCNC2)sc1C [AZ82],centrosome declustering,[3],causes centrosome declustering
same,pKi,[4],7.37
"NCCO [Etn, Monoethanolamine]",mitochondrial morphology (TEM),[5]; 40 mg/kg Etn-treated tumors versus controls,elongated mitochondria with highly degraded matrices
same,"levels of PE, PS, PC and SM lipids","[5]; Etn-treated tumors, LC/MS-MS",increased
same,body weight,"[6]; 40 mg/kg Etn, oral, over 4 weeks",no change in body weight
same,reduction in tumor volume,[6]; [22],~67%
same,reduction in tumor weight,[6]; [22],~55%
same,intratumoral Etn,[6]; after 4 weeks of Etn treatment,no significant change
same,intratumoral PhosE level versus controls,[6]; after 4 weeks of Etn treatment,~38%
same,HIF1-a expression,[7],strongly downregulated
same,"tumor lysate markers (p53, p21, Bax, pBcl2, c-PARP, Bim, Bid)",[8]; 40 mg/kg Etn,"upregulation of p53, p21, Bax, pBcl2, c-PARP, Bim and Bid"
same,Ki67 and c-PARP expression (IHC) in tumors,[8]; treated versus control tumors,marked decrease in Ki67 expression and increase in c-PARP expression
same,GI tract stability,[9],better GI tract stability
same,"reduction of viability, prostate cancer lines versus normal prostate cells",[10],more effective in reducing viability of prostate cancer lines
same,annexin-V positive apoptotic cells,[11],increased the number of annexin-V positive apoptotic cells
same,"apoptosis markers (c-PARP, Bim, Bcl-2)",[12],"increased levels of proapoptotic markers such as c-PARP and Bim, and decreased antiapoptotic molecules such as Bcl-2"
same,"cell cycle markers (pRb, Cdk4, Cdk2, p21)",[12],"downregulated pRb, Cdk4, and Cdk2, and upregulated p21"
same,intracellular PhosE levels,[13],more pronounced
same,CYP-related drug-drug interaction liability,[14],lacked CYP-related drug-drug interaction liability
same,antiproliferative activity in presence of CK inhibitor,[15],significantly attenuated
same,conversion of Etn into PhosE in presence of CK inhibitor,[15],reduced conversion of Etn into PhosE
same,glucose content,[16],significantly reduced
same,glutamine content,[16],significantly reduced
same,inhibition of PC-3 cell proliferation,[17],more effective
same,glucose content,[18],significantly reduced
same,glutamine content,[18],significantly reduced
same,decrease in colony numbers,[19],~97%
same,oxygen consumption rate (OCR),[20],decreased OCR
same,inhibition of proliferation,"[21]; breast, ovary, colon and pancreas cell lines",inhibited proliferation in all the cell lines tested
"NCCOP(=O)(O)O [PhosE, phosphoethanolamine, reference compound]",inhibition of tumor growth compared with Etn,[6]; orally delivered formulations,less effective than Etn
same,intracellular PhosE levels,[13],increased intracellular PhosE levels
same,decrease in colony numbers,[19],ineffective in decreasing colony numbers
same,inhibition of proliferation and colony formation,"[21]; up to 100 mg/ml, data not shown",ineffective
